From PubChem BioAssay AID342 (DTP/NCI, 2004)
“And” between values parts separate entries of the source, which are not always exact repeats. Equal values may be shown once.

Tested on: Swiss mice, Sarcoma 180 sc, mean tumor weight T/C
Assay: NCI In Vivo Anticancer Drug Screen. Data for tumor model Sarcoma 180 (subcutaneous) in Swiss mice
Conditions: endpoint: mean tumor weight, higher = larger tumour
In short: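 Antitumor activity is assessed in mice with transplantable tumors. Treated (T) and vehicle control (C) groups are compared on survival or tumor size.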

With O=CNc1c(Br)cc2c(c1Br)Cc1cc([N+](=O)[O-])ccc1-2 the T/C (dose: 7.0 mg/kg/injection, schedule: Q01DX007 (ip), vehicle: carboxymethylcellulose (CMC)) was 52 % of control, the T/C (dose: 11.0 mg/kg/injection, schedule: Q01DX007 (ip), vehicle: carboxymethylcellulose (CMC)) was 45 % of control and the T/C (dose: 17.0 mg/kg/injection, schedule: Q01DX007 (ip), vehicle: carboxymethylcellulose (CMC)) was 40 % of control. The T/C (dose: 26.0 mg/kg/injection, schedule: Q01DX007 (ip), vehicle: carboxymethylcellulose (CMC)) was 22 % of control.

With COc1ccc(-c2ccc(OC)c(OC)c2OC)c(N)c1 the T/C (dose: 65.0 mg/kg/injection, schedule: Q01DX007 (ip), vehicle: methylcellulose (MC)) was 98 % of control, the T/C (dose: 125.0 mg/kg/injection, schedule: Q01DX007 (ip), vehicle: methylcellulose (MC)) was 97 % of control and the T/C (dose: 250.0 mg/kg/injection, schedule: Q01DX007 (ip), vehicle: methylcellulose (MC)) was 87 % of control. The T/C (dose: 500.0 mg/kg/injection, schedule: Q01DX007 (ip), vehicle: methylcellulose (MC)) was 63 % of control, the T/C (dose: 625.0 mg/kg/injection, schedule: Q01DX007 (ip), vehicle: methylcellulose (MC)) was 58 % of control and the T/C (dose: 750.0 mg/kg/injection, schedule: Q01DX007 (ip), vehicle: methylcellulose (MC)) was 86 % of control.

With COC1C(OC(=O)/C=C/C=C/C=C/C=C/C(=O)O)CCC2(CO2)C1C1(C)OC1CC=C(C)C (configuration not stated) the T/C (dose: 2.5 mg/kg/injection, schedule: Q#A X014 (ip), vehicle: saline) was 70 % of control, the T/C (dose: 5.0 mg/kg/injection, schedule: Q#A X014 (ip), vehicle: methylcellulose (MC)) was 76 % of control and the T/C (dose: 5.0 mg/kg/injection, schedule: Q#A X014 (ip), vehicle: saline) was 54 % of control. The T/C (dose: 6.0 mg/kg/injection, schedule: Q01DX007 (ip), vehicle: carboxymethylcellulose (CMC)) was 62 % of control, the T/C (dose: 6.3 mg/kg/injection, schedule: Q01DX007 (ip), vehicle: carboxymethylcellulose (CMC)) was 58 % of control and the T/C (dose: 10.0 mg/kg/injection, schedule: Q#A X014 (ip), vehicle: methylcellulose (MC)) was 50 % of control. For the same molecule, the T/C (dose: 10.0 mg/kg/injection, schedule: Q#A X014 (ip), vehicle: saline) was 58 % of control, the T/C (dose: 12.0 mg/kg/injection, schedule: Q01DX007 (ip), vehicle: carboxymethylcellulose (CMC)) was 60 % of control and the T/C (dose: 12.5 mg/kg/injection, schedule: Q01DX007 (ip), vehicle: carboxymethylcellulose (CMC)) was 84 % of control. For the same molecule, the T/C (dose: 20.0 mg/kg/injection, schedule: Q#A X014 (ip), vehicle: methylcellulose (MC)) was 50 % of control, the T/C (dose: 20.0 mg/kg/injection, schedule: Q#A X014 (ip), vehicle: saline) was 51 % of control and the T/C (dose: 25.0 mg/kg/injection, schedule: Q01DX007 (ip), vehicle: carboxymethylcellulose (CMC)) was 41 % of control and 53 % of control and 63 % of control. The T/C (dose: 40.0 mg/kg/injection, schedule: Q#A X014 (ip), vehicle: methylcellulose (MC)) was 38 % of control, the T/C (dose: 40.0 mg/kg/injection, schedule: Q#A X014 (ip), vehicle: saline) was 39 % of control and the T/C (dose: 80.0 mg/kg/injection, schedule: Q#A X014 (ip), vehicle: methylcellulose (MC)) was 19 % of control. For the same molecule, the T/C (dose: 200.0 mg/kg/injection, schedule: Q01DX007 (ip), vehicle: carboxymethylcellulose (CMC)) was 17 % of control and 36 % of control.

For NCCc1ccccc1, the T/C (dose: 31.3 mg/kg/injection, schedule: Q01DX007 (ip), vehicle: saline) was 83 % of control and the T/C (dose: 62.5 mg/kg/injection, schedule: Q01DX007 (ip), vehicle: saline) was 32 % of control.

In the case of CCC(=O)NC, the T/C (dose: 1000.0 mg/kg/injection, schedule: Q01DX007 (ip), vehicle: other) is reported as 41 % of control and 63 % of control and the T/C (dose: 1250.0 mg/kg/injection, schedule: Q01DX007 (ip), vehicle: other) is reported as 14 % of control and 33 % of control.

For CC(C)CC(C#N)C(N)=O (configuration not stated), the T/C (dose: 7.5 mg/kg/injection, schedule: Q01DX007 (ip), vehicle: methylcellulose (MC)) was 108 % of control and the T/C (dose: 30.0 mg/kg/injection, schedule: Q01DX007 (ip), vehicle: methylcellulose (MC)) was 96 % of control.
